{"source": "paper PMC5329131", "about": "(Biochimica et biophysica acta, 2017)", "key": {"[1]": {"system": "rabbit skeletal heavy SR vesicles (RyR1)", "experiment": "Ca2+ release from heavy SR vesicles", "format": "biochemical", "settings": "for Ca2+ release by vesicles (quality control): response to caffeine, 4-cmc and A23187; for Ca2+ release by RyR agonists vs A23187: same vesicles, data not shown"}, "[2]": {"biological_target": "RyR1 (Oryctolagus cuniculus) (UniProt P11716)", "sequence (P11716 whole entry)": "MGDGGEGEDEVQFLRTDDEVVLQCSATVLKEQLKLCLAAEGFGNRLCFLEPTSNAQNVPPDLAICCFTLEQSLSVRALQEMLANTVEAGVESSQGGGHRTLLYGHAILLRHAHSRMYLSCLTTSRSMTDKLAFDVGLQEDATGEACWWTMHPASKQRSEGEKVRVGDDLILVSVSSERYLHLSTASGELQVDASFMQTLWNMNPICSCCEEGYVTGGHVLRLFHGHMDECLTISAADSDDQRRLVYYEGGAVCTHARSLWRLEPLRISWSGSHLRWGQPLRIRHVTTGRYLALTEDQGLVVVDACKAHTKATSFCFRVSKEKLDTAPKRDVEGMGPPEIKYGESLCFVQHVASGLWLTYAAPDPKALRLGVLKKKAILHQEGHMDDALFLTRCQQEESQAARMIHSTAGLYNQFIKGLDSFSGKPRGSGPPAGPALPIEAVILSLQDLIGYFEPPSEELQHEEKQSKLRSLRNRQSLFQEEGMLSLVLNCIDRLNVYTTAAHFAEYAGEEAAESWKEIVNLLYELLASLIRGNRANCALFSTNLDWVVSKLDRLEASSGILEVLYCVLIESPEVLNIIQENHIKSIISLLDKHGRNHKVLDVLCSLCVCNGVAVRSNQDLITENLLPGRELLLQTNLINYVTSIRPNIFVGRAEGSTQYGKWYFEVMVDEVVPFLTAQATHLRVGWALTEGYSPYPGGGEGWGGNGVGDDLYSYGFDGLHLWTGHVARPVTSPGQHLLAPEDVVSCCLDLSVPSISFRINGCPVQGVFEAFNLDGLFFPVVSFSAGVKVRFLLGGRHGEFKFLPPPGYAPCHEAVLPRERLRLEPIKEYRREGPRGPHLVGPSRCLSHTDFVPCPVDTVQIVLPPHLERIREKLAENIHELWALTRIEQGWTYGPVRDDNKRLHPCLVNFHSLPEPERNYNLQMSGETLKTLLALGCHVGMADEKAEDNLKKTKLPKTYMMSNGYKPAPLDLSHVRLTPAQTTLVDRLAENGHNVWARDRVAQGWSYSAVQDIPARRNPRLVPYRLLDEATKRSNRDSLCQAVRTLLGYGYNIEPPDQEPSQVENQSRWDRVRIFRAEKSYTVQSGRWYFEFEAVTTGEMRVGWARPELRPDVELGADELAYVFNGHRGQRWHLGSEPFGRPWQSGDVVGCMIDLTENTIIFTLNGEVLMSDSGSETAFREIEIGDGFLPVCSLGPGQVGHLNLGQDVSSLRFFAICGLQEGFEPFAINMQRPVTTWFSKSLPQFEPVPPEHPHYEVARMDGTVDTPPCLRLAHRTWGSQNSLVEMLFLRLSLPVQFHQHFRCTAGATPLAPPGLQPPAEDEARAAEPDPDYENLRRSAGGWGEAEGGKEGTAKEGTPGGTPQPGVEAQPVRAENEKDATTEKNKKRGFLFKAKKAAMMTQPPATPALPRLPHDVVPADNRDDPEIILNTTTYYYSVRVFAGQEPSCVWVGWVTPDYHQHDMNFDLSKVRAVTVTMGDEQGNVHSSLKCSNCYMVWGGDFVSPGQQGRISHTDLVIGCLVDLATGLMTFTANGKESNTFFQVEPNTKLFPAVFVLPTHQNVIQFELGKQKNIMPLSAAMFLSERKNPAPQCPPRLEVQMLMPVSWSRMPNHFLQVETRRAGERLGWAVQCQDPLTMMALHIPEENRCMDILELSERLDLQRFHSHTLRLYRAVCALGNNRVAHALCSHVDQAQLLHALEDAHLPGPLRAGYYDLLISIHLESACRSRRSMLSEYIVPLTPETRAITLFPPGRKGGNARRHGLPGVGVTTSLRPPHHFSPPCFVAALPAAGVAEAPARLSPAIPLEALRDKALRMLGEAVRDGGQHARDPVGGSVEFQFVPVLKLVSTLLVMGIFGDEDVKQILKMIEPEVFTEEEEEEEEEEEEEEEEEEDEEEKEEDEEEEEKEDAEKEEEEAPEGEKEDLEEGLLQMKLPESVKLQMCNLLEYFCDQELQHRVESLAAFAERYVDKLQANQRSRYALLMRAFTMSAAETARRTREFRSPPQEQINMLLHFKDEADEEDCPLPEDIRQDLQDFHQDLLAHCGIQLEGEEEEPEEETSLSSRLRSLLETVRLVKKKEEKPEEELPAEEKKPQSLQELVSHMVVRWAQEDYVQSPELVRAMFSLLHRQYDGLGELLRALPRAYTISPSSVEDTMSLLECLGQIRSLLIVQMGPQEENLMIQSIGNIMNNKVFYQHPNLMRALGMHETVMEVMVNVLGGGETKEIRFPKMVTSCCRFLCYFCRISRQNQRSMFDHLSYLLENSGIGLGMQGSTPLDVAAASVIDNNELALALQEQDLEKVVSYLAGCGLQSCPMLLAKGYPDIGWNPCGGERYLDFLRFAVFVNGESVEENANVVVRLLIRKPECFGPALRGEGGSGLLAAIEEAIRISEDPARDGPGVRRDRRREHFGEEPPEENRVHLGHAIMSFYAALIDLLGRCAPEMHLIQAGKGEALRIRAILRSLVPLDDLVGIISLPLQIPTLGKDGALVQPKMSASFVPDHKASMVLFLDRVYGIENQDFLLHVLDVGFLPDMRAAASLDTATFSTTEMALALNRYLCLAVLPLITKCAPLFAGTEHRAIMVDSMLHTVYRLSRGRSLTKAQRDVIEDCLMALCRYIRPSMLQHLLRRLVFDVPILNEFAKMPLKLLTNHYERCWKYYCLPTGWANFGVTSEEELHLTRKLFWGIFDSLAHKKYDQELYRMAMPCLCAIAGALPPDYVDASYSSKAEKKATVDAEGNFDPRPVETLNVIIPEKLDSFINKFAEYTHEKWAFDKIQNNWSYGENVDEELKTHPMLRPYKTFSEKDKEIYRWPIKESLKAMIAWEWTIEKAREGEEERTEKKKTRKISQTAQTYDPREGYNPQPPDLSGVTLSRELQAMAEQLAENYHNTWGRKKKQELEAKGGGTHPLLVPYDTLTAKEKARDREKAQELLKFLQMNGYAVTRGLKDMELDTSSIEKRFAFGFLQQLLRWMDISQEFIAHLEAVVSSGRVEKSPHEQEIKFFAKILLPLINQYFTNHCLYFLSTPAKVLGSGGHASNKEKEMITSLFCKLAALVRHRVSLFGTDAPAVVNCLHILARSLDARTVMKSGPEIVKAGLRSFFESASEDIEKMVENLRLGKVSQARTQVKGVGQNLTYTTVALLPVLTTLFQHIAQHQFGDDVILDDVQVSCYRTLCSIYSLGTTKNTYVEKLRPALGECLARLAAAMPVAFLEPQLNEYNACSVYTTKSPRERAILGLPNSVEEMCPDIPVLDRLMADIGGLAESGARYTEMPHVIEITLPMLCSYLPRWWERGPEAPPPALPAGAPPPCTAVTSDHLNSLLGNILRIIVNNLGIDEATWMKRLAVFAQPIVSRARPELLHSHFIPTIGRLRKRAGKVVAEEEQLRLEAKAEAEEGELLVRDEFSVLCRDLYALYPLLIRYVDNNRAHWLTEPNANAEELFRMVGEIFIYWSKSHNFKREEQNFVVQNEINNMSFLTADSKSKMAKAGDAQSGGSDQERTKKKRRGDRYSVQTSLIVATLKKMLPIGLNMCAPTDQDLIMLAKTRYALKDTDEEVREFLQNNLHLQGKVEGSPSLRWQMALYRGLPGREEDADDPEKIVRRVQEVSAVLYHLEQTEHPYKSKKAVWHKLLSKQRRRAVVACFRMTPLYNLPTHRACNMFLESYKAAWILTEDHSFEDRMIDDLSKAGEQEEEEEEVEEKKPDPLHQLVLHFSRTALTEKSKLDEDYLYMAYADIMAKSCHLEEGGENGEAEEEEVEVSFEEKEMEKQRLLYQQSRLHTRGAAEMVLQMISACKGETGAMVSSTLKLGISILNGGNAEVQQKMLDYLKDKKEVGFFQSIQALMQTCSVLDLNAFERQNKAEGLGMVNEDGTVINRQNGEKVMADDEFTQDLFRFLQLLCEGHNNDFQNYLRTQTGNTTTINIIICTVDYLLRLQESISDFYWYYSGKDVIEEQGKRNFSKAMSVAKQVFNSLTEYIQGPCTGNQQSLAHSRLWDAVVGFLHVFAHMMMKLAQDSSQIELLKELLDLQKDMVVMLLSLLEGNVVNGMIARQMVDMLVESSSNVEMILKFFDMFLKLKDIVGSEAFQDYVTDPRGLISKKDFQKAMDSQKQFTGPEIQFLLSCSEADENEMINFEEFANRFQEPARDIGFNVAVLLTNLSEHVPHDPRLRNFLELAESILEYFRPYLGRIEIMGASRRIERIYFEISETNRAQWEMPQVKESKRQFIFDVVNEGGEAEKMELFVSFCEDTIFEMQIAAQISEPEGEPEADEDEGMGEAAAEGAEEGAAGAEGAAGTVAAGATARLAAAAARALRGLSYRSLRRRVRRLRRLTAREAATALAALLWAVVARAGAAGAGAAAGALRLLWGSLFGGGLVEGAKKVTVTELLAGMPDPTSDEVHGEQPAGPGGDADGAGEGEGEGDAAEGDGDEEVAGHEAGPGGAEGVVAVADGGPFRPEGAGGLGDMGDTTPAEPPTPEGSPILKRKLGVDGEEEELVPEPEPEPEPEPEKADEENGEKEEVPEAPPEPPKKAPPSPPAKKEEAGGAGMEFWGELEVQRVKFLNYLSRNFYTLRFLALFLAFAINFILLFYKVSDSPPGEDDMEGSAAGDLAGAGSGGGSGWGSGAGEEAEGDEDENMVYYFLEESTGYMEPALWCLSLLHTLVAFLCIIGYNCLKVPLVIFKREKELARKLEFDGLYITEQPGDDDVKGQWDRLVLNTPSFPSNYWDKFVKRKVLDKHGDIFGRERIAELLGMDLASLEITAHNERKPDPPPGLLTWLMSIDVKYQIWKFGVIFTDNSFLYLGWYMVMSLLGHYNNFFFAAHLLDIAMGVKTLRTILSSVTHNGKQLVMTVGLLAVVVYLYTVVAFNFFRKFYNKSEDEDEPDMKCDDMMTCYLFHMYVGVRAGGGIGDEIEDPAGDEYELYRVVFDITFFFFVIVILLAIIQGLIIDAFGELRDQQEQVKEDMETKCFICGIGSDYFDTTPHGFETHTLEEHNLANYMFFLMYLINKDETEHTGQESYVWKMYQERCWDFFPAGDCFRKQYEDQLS", "experiment": "[3H]ryanodine binding", "settings": "cited from earlier work"}, "RyRs": {"system": "RyRs", "settings": "cited from earlier work"}, "RyR1": {"system": "RyR1", "settings": "alanine scanning of Imperacalcin; ref Lee et al., 2004; cited from earlier work"}, "SR Ca2+ release (RyR1)": {"system": "SR Ca2+ release (RyR1)", "settings": "ref Xiao et al., 2016; cited from earlier work"}}, "note": "pKd: −log10 of the molar value. Where no end group is shown, it is not given here."}
{"compound": "Cc1cc(O)ccc1Cl", "note": "[4-cmc]", "values": [{"measurement": "Ca2+ release by vesicles (quality control)", "setting": "[1]", "result": "equivalent amount of Ca^2+"}, {"measurement": "Ca2+ release by RyR agonists vs A23187", "setting": "[1]", "result": "release roughly equivalent levels of Ca^2+ in these vesicles as that emptied by A23187"}]}
{"compound": "CNc1ccc2oc(C[C@H]3O[C@@]4(CC[C@H]3C)O[C@H]([C@H](C)C(=O)c3ccc[nH]3)[C@H](C)C[C@H]4C)nc2c1C(=O)O", "note": "[A23187]", "values": [{"measurement": "Ca2+ release by vesicles (quality control)", "setting": "[1]", "result": "equivalent amount of Ca^2+"}]}
{"compound": "Cn1c(=O)c2c(ncn2C)n(C)c1=O", "note": "[Caffeine, caffeine]", "values": [{"measurement": "Ca2+ release by vesicles (quality control)", "setting": "[1]", "result": "equivalent amount of Ca^2+"}, {"measurement": "Ca2+ release by RyR agonists vs A23187", "setting": "[1]", "result": "release roughly equivalent levels of Ca^2+ in these vesicles as that emptied by A23187"}]}
{"compound": "Hadrucalcin (from UniProt B8QG00)", "values": [{"measurement": "pKd", "setting": "[2]", "result": 7.83}]}
{"compound": "Hemicalcin (from UniProt A0A1L4BJ42)", "values": [{"measurement": "pKd", "setting": "[2]", "result": 8.16}]}
{"compound": "Imperacalcin (from UniProt P59868)", "values": [{"measurement": "pKd", "setting": "[2]", "result": 8.06}]}
{"compound": "Imperacalcin: 33-amino acid calcin from Pandinus imperator, UniProt P59868 (GDCLPHLKRCKADNDCCGKKCKRRGTNAEKRCR; ends and bridges not checked; cysteine pairing not given here; UniProt P59868 1-33, looked up)", "values": [{"measurement": "binding site by single RyR1 channel analysis", "setting": "RyRs; ref Tripathy et al., 1998", "result": "enters the channel vestibule and binds to a single site located within the ion conduction pathway and close to the voltage drop of the channel"}, {"measurement": "effect on RyR gating", "setting": "RyRs; ref not given", "result": "increases their activity by inducing the appearance of a long-lived subconductance state"}]}
{"compound": "Maurocalcin (from UniProt P60254)", "values": [{"measurement": "pKd", "setting": "[2]", "result": 7.58}]}
{"compound": "N14A: alanine-scanning mutant N14A of Imperacalcin (GDCLPHLKRCKADADCCGKKCKRRGTNAEKRCR; ends and bridges not checked; cysteine pairing not given here; UniProt P59868 1-33, looked up, variant N14A)", "values": [{"measurement": "influence of mutation on binding affinity", "setting": "RyR1", "result": "almost no influence on binding affinity"}]}
{"compound": "Opicalcin1 (from UniProt P60252)", "values": [{"measurement": "pKd", "setting": "[2]", "result": 9.52}]}
{"compound": "Opicalcin2 (from UniProt P60253)", "values": [{"measurement": "pKd", "setting": "[2]", "result": 8.49}]}
{"compound": "Opicalcin2: calcin from Opistophthalmus carinatus, UniProt P60253 (GDCLPHLKRCKENNDCCSKKCKRRGANPEKRCR; ends and bridges not checked; cysteine pairing not given here; UniProt P60253 34-66, looked up)", "values": [{"measurement": "binding affinity vs ability to stimulate Ca2+ release", "setting": "SR Ca2+ release (RyR1)", "result": "strong binding affinity but weaker ability to stimulate Ca^2+ release"}]}
{"compound": "Urocalcin (from UniProt L0GBR1)", "values": [{"measurement": "pKd", "setting": "[2]", "result": 6.42}]}
{"compound": "Vejocalcin (from UniProt P0DPT1)", "values": [{"measurement": "pKd", "setting": "[2]", "result": 8.43}]}
